Laboratory results: US9505713B2, “High-purity sodium p-styrenesulfonate with excellent hue, method for producing the same, poly(sodium p-styrenesulfonate) with excellent hue using the same, and dispersant and synthetic starch for clothing finishing using the poly(sodium p-styrenesulfonate)” (TOSOH ORGANIC CHEMICAL CO., LTD., priority 2012, dated 2016)
Values joined by “and” are separate entries in the source; they are usually repeats but may differ in a detail not shown here. Equal entries are not always repeated.

Key:
Format in all cases: physicochemical
[1] = Whiteness and yellowness of sodium p-styrenesulfonate powder with color-difference meter; conditions: sodium p-styrenesulfonate crystal powder
Method: <Measurement of Whiteness and Yellowness of Sodium p-Styrenesulfonate with Color-Difference Meter>
After a color-difference meter (manufactured by Nippon Denshoku Industries Co., Ltd., C-106) was switched on and stabilized for 30 minutes, a light projection lens (30 mm in diameter) and a sample stand (30 mm in diameter) were attached thereto, and standard adjustment was performed. In a cell, 3.0 g of a sample was weighed, and a weight of 1 kg was placed thereon for 30 seconds. Thereafter, it was confirmed that there were no space and no wrinkles at a bottom portion of the cell. Measurement was made with the color-difference meter to read the whiteness (WI value) and the yellowness (YI value).

[2] = Measurement of rate of dissolution (solubility in water); conditions: 25° C.
Method: (§1) The repose angle is calculated by the following equation. […] A=(180−a)/2 wherein A is the repose angle (degrees) and a is the vertical angle (degrees) of the circular cone. <Measurement of Rate of Dissolution (Solubility in Water)>
In a 20-ml glass sample bottle (27 mm in outer diameter×55 mm in depth), 1.00 g of a sodium p-styrenesulfonate powder (wet powder containing impurities and water) was accurately weighed in a temperature-controlled room of 25° C., and thereafter, 9.00 g of ion-exchanged water was quickly added thereto. Then, the sample bottle was turned upside down with a period of one cycle per second, and the time before dissolution of sodium p-styrenesulfonate was visually judged.

[3] = Measurement of particle size distribution (laser diffraction/scattering, Microtrack HRA)
Method: <Measurement of Particle Size Distribution>
In a 30-ml glass sample bottle, 0.55 g of a sample and 15.0 g of isopropanol were collected, and treated with an ultrasonic washer for 4 minutes while keeping the temperature at 25° C. or less to prepare a slurry. Thereafter, the particle size (median diameter) distribution was measured under the following conditions, using a laser diffraction/scattering type particle size analyzer, Microtrack HRA (manufactured by Nikkiso Co., Ltd.).
Particle transparency=Transp
Particle refractive Index=1.55
Fluid refractive Index=1.38

[4] = Measurement of repose angle (fluidity of powder)
Method: <Measurement of Repose Angle>
(1) Instruments and Apparatus
1) On a dish, 80 g of a sample is naturally dropped through a funnel of the apparatus.
2) The vertical angle (a) of a circular cone formed on the dish is read with the protractor up to a digit of an integer.
3) This operation is repeated 3 times, and the average value of the vertical angle (a) of the circular cone is determined.
as §1

[5] = APHA values of 15 wt % aqueous sodium p-styrenesulfonate and poly(sodium p-styrenesulfonate) solutions; conditions: 15 wt % aqueous solution of the monomer
Method: <Measurement of APHA values of Aqueous Sodium p-Styrenesulfonate and Aqueous Poly(Sodium p-Styrenesulfonate) Solutions>
After a color-difference meter (manufactured by Nippon Denshoku Industries Co., Ltd., C-106) was switched on and stabilized for 30 minutes, a measuring method was changed to transmission, and a light projection lens (30 mm in diameter) and a sample stand (30 mm in diameter) were attached thereto. A standard white plate and a 0-CAL plate were set, and zero calibration was performed. After water was poured in a square cell and standard calibration was performed, 15 wt % aqueous sodium p-styrenesulfonate solution and 15 wt % aqueous poly(sodium p-styrenesulfonate) solution samples were each transferred into the square cell, and set, followed by reading the APHA values (converted from a calibration curve prepared by using standard solutions having APHA values of 0 to 500).

[6] = 1.00 g powder in 9.00 g ion-exchanged water, Table 1
[7] = sodium p-styrenesulfonate powder, Table 1
[8] = sodium p-styrenesulfonate powder, Table 1, smaller = better fluidity
[9] = listed as sodium p-styrenesulfonate A
[10] = before purification, Table 2, 1.00 g in 9.00 g water
[11] = listed as sodium p-styrenesulfonate B
[12] = after purification, Table 2, 1.00 g in 9.00 g water

Row | Structure (SMILES) | Whiteness (WI value) [1] | Yellowness (YI value) [1] | Rate of dissolution (dissolution time in water) [2, 6] [s] | Median diameter [3, 7] | Small particles less than 10.00 μm [3, 7] [%] | Repose angle [4, 8] [deg] | Solution APHA value (hue of sodium p-styrenesulfonate) [5] | Rate of dissolution (dissolution time in water) [2, 10] [s] | Median diameter ([3]; before purification, Table 2) | Small particles less than 10.00 μm ([3]; before purification, Table 2) [%] | Repose angle ([4]; before purification, Table 2) [deg] | also measured
1 | C=Cc1ccc(S(=O)(=O)[O-])cc1.[Na+] [Example 2, sodium p-styrenesulfonate] | 95.5 | 2.9 | 155 | 63 μm and 63.0 μm | 2.0 | 49 | 15 |  |  |  |  | 
2 | C=Cc1ccc(S(=O)(=O)[O-])cc1.[Na+] [Comparative Example 1, sodium p-styrenesulfonate] | 90.2 | 16.5 | 132 | 20.2 μm | 12.6 | 60 | 220 |  |  |  |  | Whiteness (WI value) [1, 9]: 90.2; Yellowness (YI value) [1, 9]: 16.5; Solution APHA value (hue of sodium p-styrenesulfonate) [5, 9]: 220
3 | C=Cc1ccc(S(=O)(=O)[O-])cc1.[Na+] [Example 1, sodium p-styrenesulfonate] | 95.7 | 5.8 | 165 | 81 μm and 81.0 μm | 0.5 | 46 | 30 |  |  |  |  | 
4 | C=Cc1ccc(S(=O)(=O)[O-])cc1.[Na+] [Comparative Example 8, sodium p-styrenesulfonate] |  |  |  |  |  |  |  | 270 | 160 μm and 160.0 μm | 0.0 | 45 | 
5 | C=Cc1ccc(S(=O)(=O)[O-])cc1.[Na+] [Example 8, sodium p-styrenesulfonate] |  |  |  |  |  |  |  | 140 | 37 μm and 37.0 μm | 3.1 | 51 | 
6 | C=Cc1ccc(S(=O)(=O)[O-])cc1.[Na+] [Example 5, sodium p-styrenesulfonate] | 95.0 | 7.5 | 130 | 18.6 μm | 14.3 | 59 | 80 |  |  |  |  | 
7 | C=Cc1ccc(S(=O)(=O)[O-])cc1.[Na+] [Comparative Example 6, sodium p-styrenesulfonate] | 91.0 | 16.0 | 122 | 21.3 μm | 12.7 | 59 | 200 |  |  |  |  | Whiteness (WI value) [1, 11]: 91.0; Yellowness (YI value) [1, 11]: 16.0; Solution APHA value (hue of sodium p-styrenesulfonate) [5, 11]: 200
8 | C=Cc1ccc(S(=O)(=O)[O-])cc1.[Na+] [Example 9, sodium p-styrenesulfonate] |  |  |  |  |  |  |  |  |  |  |  | Rate of dissolution (dissolution time in water) [2, 12]: 130 s; Median diameter ([3]; after purification, Table 2): 48 μm and 48.0 μm; Small particles less than 10.00 μm ([3]; after purification, Table 2): 2.5%; Repose angle ([4]; after purification, Table 2): 50 deg
9 | C=Cc1ccc(S(=O)(=O)[O-])cc1.[Na+] [Comparative Example 3, sodium p-styrenesulfonate] | 93.5 | 12.5 | 123 | 21.5 μm | 12.1 | 59 | 150 |  |  |  |  | 
10 | C=Cc1ccc(S(=O)(=O)[O-])cc1.[Na+] [Example 6, sodium p-styrenesulfonate] |  |  |  |  |  |  |  | 160 | 63.1 μm | 1.5 | 47 | 
11 | C=Cc1ccc(S(=O)(=O)[O-])cc1.[Na+] [Comparative Example 9, sodium p-styrenesulfonate] |  |  |  |  |  |  |  | 127 | 22.0 μm | 12.5 | 59 | Rate of dissolution (dissolution time in water) [2, 12]: 130 s; Median diameter ([3]; after purification, Table 2): 25.1 μm; Small particles less than 10.00 μm ([3]; after purification, Table 2): 1.6%; Repose angle ([4]; after purification, Table 2): 58 deg
12 | C=Cc1ccc(S(=O)(=O)[O-])cc1.[Na+] [Example 7, sodium p-styrenesulfonate] |  |  |  |  |  |  |  | 200 | 110 μm and 110.0 μm | 0.0 | 43 | 
13 | C=Cc1ccc(S(=O)(=O)[O-])cc1.[Na+] [Comparative Example 7, sodium p-styrenesulfonate] |  |  |  |  |  |  |  | 130 | 19.8 μm | 13.6 | 59 | Rate of dissolution (dissolution time in water) [2, 12]: 128 s; Median diameter ([3]; after purification, Table 2): 22.3 μm; Small particles less than 10.00 μm ([3]; after purification, Table 2): 3.1%; Repose angle ([4]; after purification, Table 2): 58 deg
14 | C=Cc1ccc(S(=O)(=O)[O-])cc1.[Na+] [Comparative Example 4, sodium p-styrenesulfonate] | 93.0 | 10.1 | 126 | 20.6 μm | 14.3 | 60 | 120 |  |  |  |  | 
